According to US9045445B2, “Glycine transporter-1 inhibitors, methods of making them, and uses thereof” (Albany Molecular Research, Inc., priority 2010, dated 2015):
Where a name gives a salt, the structure may show the parent alone. Read-outs that look alike come from different tables or passages of the source.

Tests used:
[1] = target: T1, glycine transporter-1 (GlyT-1) (Homo sapiens, UniProt P48067); test: [14C]glycine uptake assay in JAR cells endogenously expressing GlyT-1 (scintillation proximity); assay type: cell-based
T1 construct: JAR cells (ATCC#HTB-144), which endogenously express GlyT-1; host or cells: JAR human choriocarcinoma cells
T1 sequence (P48067 1-706): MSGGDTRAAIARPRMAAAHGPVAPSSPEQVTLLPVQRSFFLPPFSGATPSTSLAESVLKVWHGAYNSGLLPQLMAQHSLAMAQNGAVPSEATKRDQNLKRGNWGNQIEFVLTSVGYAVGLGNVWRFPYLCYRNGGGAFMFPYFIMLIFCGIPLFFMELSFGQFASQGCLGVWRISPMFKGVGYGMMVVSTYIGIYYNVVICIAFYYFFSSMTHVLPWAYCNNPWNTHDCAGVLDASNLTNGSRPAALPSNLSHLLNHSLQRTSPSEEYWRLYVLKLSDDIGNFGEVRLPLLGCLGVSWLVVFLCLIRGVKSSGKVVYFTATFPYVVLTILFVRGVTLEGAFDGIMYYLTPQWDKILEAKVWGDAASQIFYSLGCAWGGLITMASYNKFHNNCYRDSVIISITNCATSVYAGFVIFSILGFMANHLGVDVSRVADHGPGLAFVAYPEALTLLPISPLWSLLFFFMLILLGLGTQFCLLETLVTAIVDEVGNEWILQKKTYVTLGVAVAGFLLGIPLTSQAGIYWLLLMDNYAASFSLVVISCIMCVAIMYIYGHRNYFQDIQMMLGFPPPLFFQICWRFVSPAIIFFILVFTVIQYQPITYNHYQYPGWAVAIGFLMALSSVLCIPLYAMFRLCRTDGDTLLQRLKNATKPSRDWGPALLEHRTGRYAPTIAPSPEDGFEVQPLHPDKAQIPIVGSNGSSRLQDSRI
How it was run: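 IC50 comes from a four-parameter fit of nine-point, duplicate curves measuring inhibition of 5 μM [14C]glycine uptake, read by scintillation proximity after 3 h at 37 °C. Cells are human JAR, which express GlyT-1 endogenously, given 10 min compound pre-treatment in pH 7.4 buffer with 5 mM alanine and 0.75% DMSO.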

[2] = target: T2, glycine transporter-2 (GlyT-2) (Homo sapiens, UniProt Q9Y345); test: [14C]glycine uptake assay in HEK-GlyT-2 transfected cells; assay type: cell-based; conditions: HEK-GlyT-2 cells
T2 construct: expressed in transfected cells
T2 sequence (Q9Y345 1-797): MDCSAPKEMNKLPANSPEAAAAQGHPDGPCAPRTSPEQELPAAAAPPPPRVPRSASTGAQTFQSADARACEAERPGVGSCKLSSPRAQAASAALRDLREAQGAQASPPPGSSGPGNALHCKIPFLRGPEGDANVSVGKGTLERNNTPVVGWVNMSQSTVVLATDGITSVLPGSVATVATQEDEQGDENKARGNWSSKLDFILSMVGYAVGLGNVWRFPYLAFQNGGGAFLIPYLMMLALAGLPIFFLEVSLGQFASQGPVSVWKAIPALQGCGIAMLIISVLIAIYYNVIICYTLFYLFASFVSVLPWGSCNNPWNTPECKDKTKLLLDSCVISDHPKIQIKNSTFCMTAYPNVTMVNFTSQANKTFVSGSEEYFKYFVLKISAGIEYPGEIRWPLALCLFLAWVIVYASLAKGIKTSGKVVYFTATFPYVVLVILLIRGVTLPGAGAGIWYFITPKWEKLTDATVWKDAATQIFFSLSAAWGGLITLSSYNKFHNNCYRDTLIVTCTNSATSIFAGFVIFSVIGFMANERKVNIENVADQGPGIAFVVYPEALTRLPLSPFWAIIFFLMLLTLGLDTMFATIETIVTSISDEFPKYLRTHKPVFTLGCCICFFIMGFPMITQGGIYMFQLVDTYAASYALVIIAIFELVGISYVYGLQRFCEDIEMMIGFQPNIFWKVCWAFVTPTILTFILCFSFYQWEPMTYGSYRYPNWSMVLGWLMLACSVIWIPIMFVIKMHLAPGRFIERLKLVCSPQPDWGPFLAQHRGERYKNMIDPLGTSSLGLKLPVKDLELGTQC

[3] = JAR cells, [14C]glycine 5 μM, 3 hour incubation, read-out: GlyT-1 IC50

Row | SMILES | IC50 [1, 3] [nM] | IC50 [2] [nM] | IC50 ([1]; GlyT-1 IC50 (nM)) [nM]
1 | Cc1ccc(C(=O)NCC2(N3CCN(S(=O)(=O)c4cn(C)cn4)CC3)CCCCC2)c(C)c1 [compound 94, 2,4-Dimethyl-N-((1-(4-(1-methyl-1H-imidazol-4-ylsulfonyl)piperazin-1-yl)cyclohexyl)methyl) benzamide Hydrochloride] | 13 | > 75000 | 
2 | CCCS(=O)(=O)N1CCN(C2(CNC(=O)c3c(C)cccc3C)CCOCC2)CC1 [compound 120, 2,6-Dimethyl-N-((4-(4-(propylsulfonyl)piperazin-1-yl)tetrahydro-2H-pyran-4-yl)methyl)benzamide Hydrochloride] | 175 | 41300 | 
3 | Nc1cccc(Cl)c1C(=O)NCC1(N2CCN(S(=O)(=O)c3ccccc3)CC2)CCCCC1 [compound 89, 2-Amino-6-chloro-N-((1-(4-(phenylsulfonyl)piperazin-1-yl)cyclohexyl)methyl) benzamide Hydrochloride] | 2290 | > 75000 | 
4 | COc1cc(F)cc(SC)c1C(=O)NCC1(N2CCN(S(=O)(=O)CC3CC3)CC2)CCCCC1 [compound 82, N-((1-(4-(Cyclopropylmethyl-sulfonyl)piperazin-1-yl)cyclohexyl)methyl)-4-fluoro-2-methoxy-6-(methylthio)benzamide Hydrochloride] | 50 | > 75000 | 
5 | CCCS(=O)(=O)N1CCN(C2(CNC(=O)c3ccc(F)cc3Cl)CCCCC2)CC1 [compound 12, 2-Chloro-4-fluoro-N-((1-(4-(propylsulfonyl)piperazin-1-yl)cyclohexyl)methyl) benzamide Hydrochloride] | 63 | > 75000 | 
6 | CCCS(=O)(=O)N1CCN(C2(CNC(=O)c3c(C)cc(C)cc3C)CCCCC2)CC1 [compound 36, 2,4,6-Trimethyl-N-((1-(4-(propylsulfonyl)piperazin-1-yl)cyclohexyl)methyl) benzamide Hydrochloride] | 39 | > 75000 | 
7 | CCS(=O)(=O)N1CCN(C2(CNC(=O)c3ccc(C(F)(F)F)cc3Cl)CCC(F)(F)CC2)CC1 [compound 203, 2-Chloro-N-((1-(4-(ethylsulfonyl)piperazin-1-yl)-4,4-difluorocyclohexyl)methyl)-4-(trifluoromethyl) benzamide Hydrochloride] | 94 | > 75000 | 
8 | Cn1cnc(S(=O)(=O)N2CCN(C3(CNC(=O)c4ccccc4Cl)CCC(F)(F)CC3)CC2)c1 [compound 160, 2-Chloro-N-((4,4-difluoro-1-(4-(1-methyl-1H-imidazol-4-ylsulfonyl)piperazin-1-yl)cyclohexyl)methyl) benzamide Hydrochloride] | 9 | > 75000 | 
9 | CCCS(=O)(=O)N1CCN(C2(CNC(=O)c3cc(F)c(Cl)cc3Cl)CCC(F)(F)CC2)CC1 [compound 263, 2,4-Dichloro-N-((4,4-difluoro-1-(4-(propylsulfonyl)piperazin-1-yl)cyclohexyl)methyl)-5-fluorobenzamide Hydrochloride] | 23 | > 75000 | 
10 | CCCS(=O)(=O)N1CCN(C2(CNC(=O)c3c(Cl)cccc3Cl)CCC(F)(F)CC2)CC1 [compound 135, 2,6-Dichloro-N-((4,4-difluoro-1-(4-(propylsulfonyl)piperazin-1-yl)cyclohexyl)methyl) benzamide Hydrochloride] | 42 | > 75000 | 
11 | O=C(NCC1(N2CCN(S(=O)(=O)CC3CC3)CC2)CCCCC1)c1c(F)cccc1F [compound 81, N-((1-(4-(Cyclopropylmethyl-sulfonyl)piperazin-1-yl)cyclohexyl)methyl)-2,6-difluorobenzamide Hydrochloride] | 61 | > 75000 | 
12 | CCCS(=O)(=O)N1CCN(C2(CNC(=O)c3c(Cl)cc(C(F)(F)F)cc3Cl)CCC(F)(F)CC2)CC1 [compound 258, 2,6-Dichloro-N-((4,4-difluoro-1-(4-(propylsulfonyl)piperazin-1-yl)cyclohexyl)methyl)-4-(trifluoromethyl) benzamide Hydrochloride] | 9 | > 75000 | 
13 | CCCS(=O)(=O)N1CCN(C2(CNC(=O)c3c(OC)cc(C(F)(F)F)cc3C(F)(F)F)CCCCCC2)CC1 [compound 70, 2-Methoxy-N-((1-(4-(propylsulfonyl)piperazin-1-yl)cycloheptyl)methyl)-4,6-bis(trifluoromethyl) benzamide Hydrochloride] | 9 | > 75000 | 
14 | CCCS(=O)(=O)N1CCN(C2(CNC(=O)c3c(C)cc(F)cc3OC)CCOCC2)CC1 [compound 121, 4-Fluoro-2-methoxy-6-methyl-N-((4-(4-(propylsulfonyl)piperazin-1-yl)tetrahydro-2H-pyran-4-yl)methyl)benzamide Hydrochloride] | 191 | > 45000 | 
15 | CCCS(=O)(=O)N1CCN(C2(CNC(=O)c3ccc(F)cc3)CCCCC2)CC1 [compound 15, 4-Fluoro-N-((1-(4-(propylsulfonyl)piperazin-1-yl)cyclohexyl)methyl) benzamide Hydrochloride] | 786 | > 75000 | 
16 | Cn1cnc(S(=O)(=O)N2CCN(C3(CNC(=O)c4c(F)cccc4F)CCCC3)CC2)c1 [compound 104, 2,6-Difluoro-N-((1-(4-(1-methyl-1H-imidazol-4-ylsulfonyl)piperazin-1-yl)cyclopentyl)methyl) benzamide Hydrochloride] | 346 | > 75000 | 
17 | CCCS(=O)(=O)N1CCN(C2(CNC(=O)c3c(F)ccc(F)c3Cl)CCCCCC2)CC1 [compound 54, 2-Chloro-3,6-difluoro-N-((1-(4-(propylsulfonyl)piperazin-1-yl)cycloheptyl)methyl) benzamide Hydrochloride] | 20 | > 75000 | 
18 | CCCS(=O)(=O)N1CCN(C2(CNC(=O)c3ccc(OC(F)(F)F)cc3)CCCCC2)CC1 [compound 6, N-((1-(4-(Propylsulfonyl)piperazin-1-yl)cyclohexyl)methyl)-4-(trifluoromethoxy) benzamide Hydrochloride] | 118 | 28600 | 
19 | Cn1cc(S(=O)(=O)N2CCN(C3(CNC(=O)c4ccc(F)cc4F)CCCC3)CC2)nn1 [compound 111, 2,4-Difluoro-N-((1-(4-(1-methyl-1H-1,2,3-triazol-4-ylsulfonyl)piperazin-1-yl)cyclopentyl)methyl) benzamide Hydrochloride] | 242 | > 75000 | 
20 | Cn1cc(S(=O)(=O)N2CCN(C3(CNC(=O)c4ccc(C(F)(F)F)cc4F)CCC(F)(F)CC3)CC2)nn1 [compound 232, N-((4,4-Difluoro-1-(4-(1-methyl-1H-1,2,3-triazol-4-ylsulfonyl)piperazin-1-yl)cyclohexyl)methyl)-2-fluoro-4-(trifluoromethyl)benzamide Hydrochloride] | 6 | > 75000 | 
21 | CCCS(=O)(=O)N1CCN(C2(CNC(=O)c3c(OC)cc(F)cc3SC)CCCCC2)CC1 [compound 20, 4-Fluoro-2-methoxy-6-(methylthio)-N-((1-(4-(propylsulfonyl)piperazin-1-yl)cyclohexyl)methyl)benzamide Hydrochloride] |  | > 75000 | 6
22 | Cn1cnc(S(=O)(=O)N2CCN(C3(CNC(=O)c4c(F)cccc4F)CCCCCC3)CC2)c1 [compound 107, 2,6-Difluoro-N-((1-(4-(1-methyl-1H-imidazol-4-ylsulfonyl)piperazin-1-yl)cycloheptyl)methyl) benzamide Hydrochloride] | 9 | > 75000 | 
